For 13 compounds, TGI and GI50 results are on record in PubChem BioAssay (NCI).

Several values for one entry are separate records, joined by “and”; a condition that tells them apart may be missing. Equal entries are not always repeated.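 Growth conditions: 96-well plates. Treatment: test compound, 48 hours, 5 concentrations. Analysis: linear interpolation between bracketing concentrations; unreached endpoints set to highest concentration. Here, GI50 denotes the concentration required for 50% inhibition of growth. TGI: concentration producing complete growth inhibition.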

Test systems include A498 renal; OVCAR-5 ovarian; SW-620 colon; A549 NSCLC; COLO 205 colon; NCI/ADR-RES ovarian; CAKI-1 renal; SNB-75 CNS; SK-MEL-2 melanoma; CCRF-CEM leukemia.
Holding throughout (test): NCI-60 cell line screen, 48 h

With `CNC/C(Cl)=N/S(=O)(=O)c1ccc(C)cc1`, the TGI with A498 renal is 54.4 µM; in the assay with OVCAR-5 ovarian it was 47.5 µM; in the assay on SW-620 colon, > 100 µM; with A549 NSCLC it was 51.4 µM; in the assay with COLO 205 colon, 38.2 µM; in the assay on NCI/ADR-RES ovarian, > 100 µM. For the same compound, the figures for the TGI in the assay with CAKI-1 renal, in the assay with SNB-75 CNS and in the assay on SK-MEL-2 melanoma were 26.2 µM, 18.4 µM and 34.4 µM, respectively.
Turning to `COc1cccc(/C=C/[N+](=O)[O-])c1`, the GI50 in the assay on A498 renal is 3.54 µM; in the assay on OVCAR-5 ovarian, 12.3 µM; in the assay on SW-620 colon, 1.97 µM; with A549 NSCLC, 5.06 µM; in the assay on COLO 205 colon, 1.86 µM; with CCRF-CEM leukemia, 2.8 µM. The GI50 in the assay with NCI/ADR-RES ovarian is 26.2 µM; in the assay on SNB-75 CNS, 12.4 µM; with SK-MEL-2 melanoma it was 17.4 µM. For the same compound, the TGI with A498 renal was 16.5 µM; with OVCAR-5 ovarian it was 27.6 µM; in the assay on SW-620 colon it was 4.27 µM; with A549 NSCLC, 25.4 µM; in the assay on COLO 205 colon, 3.54 µM; in the assay with CCRF-CEM leukemia it was 7.32 µM. The TGI in the assay on NCI/ADR-RES ovarian was found to be 97.8 µM; in the assay on SNB-75 CNS, 27.9 µM; in the assay on SK-MEL-2 melanoma it was 35.9 µM.
On to `COc1cc2c(cc1OC)-c1ccc3cc4c(cc3c1N(CCCn1ccnc1)C2)OCO4`, for which the GI50 is 7.66 µM with A498 renal; 16.4 µM in the assay with OVCAR-5 ovarian; 1.58 µM in the assay on SW-620 colon; 8.39 µM in the assay on A549 NSCLC; 1.49 µM with COLO 205 colon; 0.62 µM in the assay with CCRF-CEM leukemia. The results for the GI50 with NCI/ADR-RES ovarian, in the assay with SNB-75 CNS and in the assay with SK-MEL-2 melanoma were > 100 µM, 1.75 µM and 3.02 µM, respectively. In addition, the TGI in the assay with A498 renal worked out at 27.1 µM; with OVCAR-5 ovarian, 69.9 µM; with SW-620 colon it was 21 µM; with A549 NSCLC, 32.1 µM; in the assay with COLO 205 colon, 6.12 µM; in the assay with CCRF-CEM leukemia, 21.4 µM. The TGI in the assay on NCI/ADR-RES ovarian is > 100 µM; in the assay on SNB-75 CNS, 19.6 µM; in the assay on SK-MEL-2 melanoma, 8.73 µM.
Consider `N#CC1=C(N)Oc2c(ccc3ccccc23)C1c1ccccc1` (stereo not drawn), for which the GI50 with A498 renal is 0.0185 µM; in the assay with OVCAR-5 ovarian it was 0.172 µM; in the assay with SW-620 colon it was 0.0388 µM; with A549 NSCLC it was 0.0845 µM; in the assay with COLO 205 colon, 0.19 µM; in the assay on CCRF-CEM leukemia, 0.0437 µM. In addition, the GI50 in the assay on NCI/ADR-RES ovarian is 0.0274 µM; in the assay on CAKI-1 renal, 0.0283 µM; with SK-MEL-2 melanoma, 0.0517 µM. The TGI in the assay on A498 renal was determined as 0.0809 µM; in the assay with OVCAR-5 ovarian it was 17.2 µM; in the assay with SW-620 colon, 18.6 µM; in the assay on A549 NSCLC, 18.3 µM; with COLO 205 colon, 1.23 µM; in the assay with CCRF-CEM leukemia it was 41.5 µM. Further, the TGI in the assay on NCI/ADR-RES ovarian is 1.68 µM; in the assay on CAKI-1 renal it was 12.6 µM; in the assay on SK-MEL-2 melanoma it was 12.6 µM.
For the compound `Cc1cc(-c2nc3sccn3c2/C=N/N=C(N)N)c(C)s1`, the GI50 in the assay with A498 renal is 18.8 µM; with OVCAR-5 ovarian, 14 µM; in the assay with SW-620 colon it was 21.8 µM; in the assay with A549 NSCLC it was 25.5 µM; in the assay with CCRF-CEM leukemia, 16.6 µM; in the assay with NCI/ADR-RES ovarian it was 17.4 µM. Moreover, the GI50 with SNB-75 CNS is 15 µM. In addition, the TGI in the assay on A498 renal was 33.9 µM; with OVCAR-5 ovarian, 26.9 µM; in the assay on SW-620 colon, 54.5 µM; with A549 NSCLC, 51 µM; in the assay with CCRF-CEM leukemia, 48 µM; in the assay on NCI/ADR-RES ovarian, 31.6 µM. For the same compound, the TGI with SNB-75 CNS worked out at 30.2 µM.
`O=C1CC(=O)N(C(=O)c2nn(-c3ccc(Cl)cc3)cc2O)N1`: the GI50 in the assay with OVCAR-5 ovarian was 4.17 µM; in the assay with SW-620 colon, 2.19 µM; in the assay on A549 NSCLC, 0.36 µM; in the assay with COLO 205 colon, 0.748 µM; with CCRF-CEM leukemia it was 0.41 µM; in the assay on NCI/ADR-RES ovarian, 1.16 µM. Further, the GI50 was 0.639 µM with CAKI-1 renal, 0.242 µM in the assay on SNB-75 CNS and > 100 µM in the assay with SK-MEL-2 melanoma. In addition, the TGI was > 100 µM in the assay with OVCAR-5 ovarian; > 100 µM with SW-620 colon; > 100 µM in the assay with A549 NSCLC; 3.99 µM in the assay with COLO 205 colon; 16.7 µM in the assay with CCRF-CEM leukemia; > 100 µM in the assay with NCI/ADR-RES ovarian. The results for the TGI with CAKI-1 renal, in the assay on SNB-75 CNS and in the assay with SK-MEL-2 melanoma were 12.7 µM, > 100 µM and > 100 µM, respectively.
For the compound `NC[C@H]1Nc2ccccc2[C@@H](O)C1O` (stereo partly drawn), the TGI with OVCAR-5 ovarian, in the assay on SW-620 colon, with A549 NSCLC, with COLO 205 colon, in the assay on CCRF-CEM leukemia and with NCI/ADR-RES ovarian was > 100 µM in each case. Moreover, the TGI in the assay on CAKI-1 renal, with SNB-75 CNS and in the assay on SK-MEL-2 melanoma was > 100 µM each time.
For `COC(=O)CC[C@]1(C)O[C@H]2[C@H]([C@@H](C)CCCC(C)=O)OC(=O)[C@@H]2C[C@H]1O`, the GI50 in the assay on OVCAR-5 ovarian, in the assay with SW-620 colon, in the assay on A549 NSCLC, in the assay on COLO 205 colon, in the assay with CCRF-CEM leukemia and with NCI/ADR-RES ovarian was > 100 µM each time. Further, the values for the GI50 with CAKI-1 renal, with SNB-75 CNS and in the assay with SK-MEL-2 melanoma were 32 µM, > 100 µM and > 100 µM, respectively. In addition, the TGI in the assay on OVCAR-5 ovarian, in the assay with SW-620 colon, in the assay on A549 NSCLC, in the assay with COLO 205 colon, in the assay with CCRF-CEM leukemia and in the assay with NCI/ADR-RES ovarian was > 100 µM each time. Also, the TGI in the assay with CAKI-1 renal, in the assay on SNB-75 CNS and with SK-MEL-2 melanoma was > 100 µM throughout.
For the compound `C=C1C(=O)O[C@H]2[C@H]1CC/C(COC(=O)c1cc3ccccc3o1)=C\CC[C@@]1(C)O[C@@H]21`, the GI50 is 12.9 µM with A498 renal; 1.88 µM in the assay on OVCAR-5 ovarian; 0.662 µM with SW-620 colon; 2.91 µM in the assay on A549 NSCLC; 1.55 µM in the assay on COLO 205 colon; 0.335 µM in the assay on CCRF-CEM leukemia. Moreover, the values for the GI50 in the assay with NCI/ADR-RES ovarian, with SNB-75 CNS and in the assay with SK-MEL-2 melanoma were 2.59 µM, 1.34 µM and 1.77 µM, respectively. Further, the TGI with A498 renal was determined as 26 µM; with OVCAR-5 ovarian it was 3.75 µM; in the assay with SW-620 colon, 2.49 µM; with A549 NSCLC, 12 µM; in the assay with COLO 205 colon, 3.15 µM; with CCRF-CEM leukemia, 4.03 µM. The figures for the TGI in the assay with NCI/ADR-RES ovarian, in the assay on SNB-75 CNS and in the assay with SK-MEL-2 melanoma were 10.1 µM, 3.18 µM and 3.81 µM, respectively.
In the case of `Nc1c2c(c(O)c3c1=C(CO)C=N3)=NCCS2`, the GI50 in the assay on A498 renal is 0.148 µM; in the assay on OVCAR-5 ovarian it was 0.184 µM; in the assay with SW-620 colon it was 0.202 µM; in the assay with A549 NSCLC, 0.0561 µM; in the assay on COLO 205 colon it was 0.0397 µM; with CCRF-CEM leukemia, 0.329 µM. Also, the GI50 was 0.256 µM in the assay with NCI/ADR-RES ovarian, 0.168 µM in the assay with SNB-75 CNS and 0.25 µM in the assay with SK-MEL-2 melanoma. Moreover, the TGI in the assay on A498 renal came to 0.285 µM; in the assay with OVCAR-5 ovarian, 0.346 µM; in the assay on SW-620 colon, 0.391 µM; in the assay on A549 NSCLC, 0.219 µM; in the assay with COLO 205 colon it was 0.146 µM; with CCRF-CEM leukemia, 1.9 µM. In addition, the TGI amounted to 0.824 µM in the assay on NCI/ADR-RES ovarian, 0.306 µM in the assay with SNB-75 CNS and 0.658 µM with SK-MEL-2 melanoma.
In the case of `c1cc(N2CCCN(c3ccc(C4=NCCCN4)cc3)CC2)ccc1C1=NCCCN1`, the GI50 was 2.72 µM in the assay on A498 renal; > 100 µM in the assay with OVCAR-5 ovarian; > 100 µM with SW-620 colon; 59.6 µM in the assay on A549 NSCLC; > 100 µM in the assay on COLO 205 colon; > 100 µM with CCRF-CEM leukemia. Moreover, the GI50 with NCI/ADR-RES ovarian, in the assay with CAKI-1 renal and in the assay with SNB-75 CNS was > 100 µM in each case. Besides, the TGI in the assay on A498 renal, in the assay on OVCAR-5 ovarian, in the assay on SW-620 colon, in the assay with A549 NSCLC, in the assay on COLO 205 colon and in the assay on CCRF-CEM leukemia was > 100 µM each time. In addition, the TGI in the assay with NCI/ADR-RES ovarian, in the assay on CAKI-1 renal and with SNB-75 CNS was > 100 µM each time.
As for `Cc1ccc(NC2=C(Cl)C(=O)N(Cc3ccc(Cl)cc3)C2=O)cc1O`, the GI50 is 11.9 µM in the assay on A498 renal; 7.76 µM in the assay with SW-620 colon; 10.5 µM in the assay on A549 NSCLC; 10.7 µM in the assay on COLO 205 colon; 4.64 µM in the assay with CCRF-CEM leukemia; 9.24 µM in the assay on NCI/ADR-RES ovarian. The values for the GI50 with CAKI-1 renal and in the assay with SK-MEL-2 melanoma were 2.79 µM and 10.7 µM, respectively. The TGI with A498 renal was 25.9 µM; with SW-620 colon it was 66.6 µM; with A549 NSCLC it was 29.2 µM; in the assay on COLO 205 colon it was 41 µM; in the assay with CCRF-CEM leukemia, 60 µM; with NCI/ADR-RES ovarian, 37.8 µM. In addition, the TGI was found to be 18 µM in the assay with CAKI-1 renal and 26.7 µM in the assay with SK-MEL-2 melanoma.
Turning to `COc1cc(Nc2nc3ccccc3nc2NS(=O)(=O)c2ccc(NC(=O)c3ccc(C)c(OC)c3)cc2)cc(OC)c1`, the TGI was > 100 µM with OVCAR-5 ovarian; > 100 µM in the assay on SW-620 colon; > 100 µM and 80.4 µM and > 9.12 µM with A549 NSCLC; > 100 µM and 71.6 µM and > 10 µM in the assay on CCRF-CEM leukemia; > 100 µM with NCI/ADR-RES ovarian; > 100 µM and 73.8 µM and > 6.67 µM with CAKI-1 renal. The TGI in the assay on SNB-75 CNS was 13.3 µM and 20 µM and 2.75 µM; in the assay with SK-MEL-2 melanoma it was 22.6 µM and 32.8 µM and 3.83 µM. The GI50 in the assay with A549 NSCLC is 4.38 µM and 13.3 µM and 1.79 µM; in the assay on NCI/ADR-RES ovarian it was 4.36 µM and 17.7 µM and > 3.64 µM; with SNB-75 CNS it was 1.39 µM and 1.51 µM and 0.302 µM.
